Measured values taken from PubChem BioAssay (NCI).
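Method: 48-hour compound exposure of cells in 96-well plates, five concentrations, linear interpolation of endpoints. The concentration for 50% growth inhibition is given as GI50. Definition used: TGI = concentration required for complete inhibition of growth.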

Columns and labels:
Experiment in all cases: NCI tumour cell line growth inhibition, 48 h
[1] = test system: OVCAR-4 ovarian
[2] = test system: PC-3 prostate
[3] = test system: MALME-3M melanoma
[4] = test system: RXF 393 renal
[5] = test system: SNB-75 CNS
[6] = test system: KM12 colon
[7] = test system: SK-MEL-2 melanoma
[8] = test system: EKVX NSCLC
[9] = test system: A498 renal
[10] = test system: MDA-N

| Structure (SMILES) | GI50 [1] [µM] | TGI [1] [µM] | GI50 [2] [µM] | TGI [2] [µM] | GI50 [3] [µM] | TGI [3] [µM] | GI50 [4] [µM] | TGI [4] [µM] | GI50 [5] [µM] | TGI [5] [µM] | GI50 [6] [µM] | TGI [6] [µM] | GI50 [7] [µM] | TGI [7] [µM] | GI50 [8] [µM] | TGI [8] [µM] | GI50 [9] [µM] | TGI [9] [µM] | TGI [10] [µM] |
| --- | --- | --- | --- | --- | --- | --- | --- | --- | --- | --- | --- | --- | --- | --- | --- | --- | --- | --- | --- |
| O=C1c2cc3c(cc2-c2c1c1cc(F)c(F)cc1c(=O)n2CCCn1ccnc1)OCO3 | 0.27 | > 100 | 0.124 | > 100 | 0.0856 | 1.21 | 0.036 | 0.169 | < 0.01 | 0.11 | 0.0469 | 14.7 | 0.256 | 0.93 | 0.687 | > 100 | 0.0233 | 0.116 |  |
| COc1ccc(CCNC(=O)Cc2ccccc2CO)cc1OC |  | > 100 |  | > 100 |  |  |  | > 100 |  | > 100 |  | > 100 |  | > 100 |  | > 100 |  | > 100 | > 100 |
| CC1=C(C)C(=O)C(C2=CC(=O)c3ccccc3C2=O)=C(C2=CC(=O)c3ccccc3C2=O)C1=O |  | 42.8 |  | 21.7 |  | 4.33 |  | 22.4 |  | 31.5 |  | 28.9 |  | 24.4 |  | > 72 |  | 50.8 |  |
| O=C(Nc1ccccc1)N1CCN(C(=O)Nc2ccccc2)C1=S |  | > 100 |  |  |  | > 100 |  | 43.6 |  | 47.2 |  | > 100 |  | > 100 |  | > 100 |  | 7.64 | > 100 |
| CC(=O)n1[nH]c(=O)n(-c2ccc(Cl)cc2)c1=O |  | > 100 |  | > 100 |  | > 100 |  | > 100 |  |  |  | > 100 |  | > 100 |  | > 100 |  |  | > 100 |
| CC(=O)C(=Cc1cn(C)c(=O)n(C)c1=O)C(C)=O |  | 273 |  |  |  | 201 |  | 148 |  | 240 |  | 189 |  | 255 |  | 323 |  | 290 |  |
| CCC1(c2ccc(N3C(=O)c4cccc5cc([N+](=O)[O-])cc(c45)C3=O)cc2)CCC(=O)NC1=O (centres undefined) |  | 42.4 |  | > 100 |  | 92.2 |  | 20.4 |  | 68 |  | > 100 |  | > 100 |  | > 70.5 |  | 97.8 |  |
| CCc1nc(N)c2nc(-c3cccs3)oc2n1 |  |  |  | > 100 |  |  |  | > 100 |  | > 100 |  | > 100 |  | > 100 |  | > 100 |  |  | > 100 |
| NC(=O)CCC(N=c1c2ccccc2n(O)c2ccccc12)C(=O)O (centres undefined) |  | > 100 |  |  |  | > 100 |  |  |  | > 100 |  | > 100 |  | > 100 |  | > 100 |  | > 100 |  |
| Cc1cn(CCCCCCOC(=O)NC(CCCNC(N)=O)C(=O)O)c(=O)[nH]c1=O (centres undefined) |  | > 100 |  | > 100 |  |  |  | > 100 |  | > 100 |  | > 100 |  | > 100 |  | > 100 |  | > 100 | > 100 |
| CCOC(=O)NC(=S)N(CC(=O)c1cc(OC)c(OC)c(OC)c1)c1ccc(Cl)cc1 | 60.6 | > 100 | 72.2 | > 100 | > 100 | > 100 | 17.2 | 89.7 | 34.1 | > 100 | > 100 | > 100 | 47.4 | > 100 | 62.4 | > 100 | 90.1 | > 100 |  |
| N[C@@H](CCC(=O)NC(Cc1ccccc1)C(=O)NCP(=O)(O)O)C(=O)O (some centres undefined) |  |  |  | > 100 |  | > 100 |  |  |  |  |  | > 100 |  | > 100 |  | > 100 |  | > 100 | > 100 |
| O=C1NC(O)c2cc3ccccc3cc2O1 (centres undefined) |  | > 100 |  | > 100 |  | > 100 |  | > 100 |  | > 100 |  | > 100 |  |  |  | > 100 |  |  |  |
| CC(C)(C)C(=O)Nc1c(C=O)ccc2[nH]cnc12 |  | > 100 |  | > 100 |  |  |  | > 100 |  | > 100 |  | > 100 |  | > 100 |  | > 100 |  | > 100 | > 100 |
| Cc1ccccc1NC(=O)CSc1nnc(-c2ccc(N=Cc3ccc(Cl)cc3)cc2)o1 |  | > 100 |  |  |  | > 100 |  | > 100 |  | > 100 |  | > 100 |  | > 100 |  | > 100 |  |  |  |
| N#Cc1nc(CCc2nc(C#N)c(N)o2)oc1N |  | > 10 |  | > 10 |  | > 10 |  | > 10 |  | > 10 |  | > 10 |  |  |  | > 10 |  |  | > 10 |
| CCOC(=O)c1c(-c2ccc(OC)cc2)ccn1C |  | > 10 |  | > 9.68 |  | > 10 |  | > 10 |  | > 10 |  | > 10 |  | > 10 |  | > 10 |  |  |  |
| CC1=C(CO)C(=O)OC(C(C)C2CCC3C4CC5OC56C(O)C(N5CC5)=CC(=O)C6(C)C4CCC23C)C1 (centres undefined) |  | 20.6 |  |  |  | 25.1 |  | 26.9 |  | 18.6 |  | 5.01 |  | 18.1 |  | 25.6 |  | 16.3 |  |
| O=S(=O)(Nc1nc2ccccc2nc1N1CCCCCC1)c1ccccc1 |  | 36.4 |  | 77.4 |  | > 100 |  | 57.5 |  | 86.1 |  | 52 |  | 33.4 |  | > 100 |  |  | > 100 |
| CC(C)CCCC(C)[C@H]1CCC(C2C[C@@H](O)[C@@H]3CC(O)[C@@H](O)C[C@]3(CO)C2=O)[C@]1(C)CCO (some centres undefined) |  | > 83.8 |  |  |  | 44.8 |  | 53.3 |  | 48.7 |  | 19.6 |  | 39.7 |  | > 94.9 |  | 48.9 |  |
| O=C1Nc2ccccc2/C1=C\c1c(Cl)n(-c2ccccc2)c2ccccc12 |  | 21.6 |  | 60.3 |  | 10.4 |  | 10.9 |  | 7.03 |  | 14 |  | 36.3 |  | 7.7 |  | 22.2 |  |
| O=c1[nH]c(=O)n(COC(CO)CO)cc1-c1ccccc1 |  | > 100 |  | > 100 |  | > 100 |  |  |  | > 100 |  | > 100 |  | > 100 |  | > 100 |  |  | > 100 |
